Data from patent US11524021B2, “Use of ginsenoside M1 for manufacturing medicament for treating oral cancer” (priority 2018, dated 2022).

Tested on: human oral cancer cells SAS xenografts
Assay: Tumor growth in human oral cancer SAS xenograft mice
Assay type: in vivo, BALB/c nude (nu/nu) mice
Conditions: 5 successive days
Method: FIGS. 6A-6C show oral administration of ginsenoside M1 reduced human oral cancer growth in mice. Human oral cancer cell line SAS cells Xenografts mice with tumor size around 40˜60 mm^3 were given a daily oral administration of either ginsenoside M1 (30-90 mg/kg) or vehicle for 5 successive days. (FIG. 6A) The tumor volume was determined by measurement of the length (L) and width (W) of the tumor and calculated as tumor volume (mm3)=(L×W^2)/2. (FIG. 6B) The tumor weight was measured after the mice were scarified. (FIG. 6C) The body weight of mice was recorded. The data were expressed as mean±SD; n=6. ** and *** indicate a significant difference at the level of p<0.01 and p<0.001, respectively, compared to vehicle-control mice. (One-way ANOVA with Dunnett's multiple comparisons test).
FIGS. 7A-7C show subcutaneous (SC) injection of ginsenoside M1 reduced human oral cancer growth in mice. Human oral cancer cell line SAS cells Xenografts mice with tumor size around 40˜60 mm^3 were given a daily SC injection of either ginsenoside M1 (20 mg/kg) or vehicle for 5 successive days. (FIG. 7A) The tumor volume was determined by measurement of the length (L) and width (W) of the tumor and calculated as tumor volume (mm3)=(L×W^2)/2. (FIG. 7B) The tumor weight was measured after the mice were scarified. (FIG. 7C) The body weight of mice was recorded. The data were expressed as mean±SD; n=6. ** indicates a significant difference at the level of p<0.01, compared to vehicle-control mice. (One-way ANOVA with Dunnett's multiple comparisons test).
To evaluate the anti-cancer activity of ginsenoside M1 in vivo, human oral cancer xenografts were used. Six-week-old male congenital athymic BALB/c nude (nu/nu) mice were purchased from BioLASCO Taiwan Co., Ltd (Ilan, Taiwan), and housed in a room under controlled temperature (23±3° C.) and relative humidity (50±5%). Animal experiments were performed with the approval of the Institutional Animal Care and Use Committee of the National Ilan University (approval number: No. 106-13) according to the NIH Guide for the Care and Use of Laboratory Animals. Xenografts mice were established by subcutaneous (SC) injection of 2×10^6 human oral cancer cells SAS (in 75 μl PBS+75 μl Matrigel) on the backs of the nude mice. After the tumor has reached about 40˜60 mm^3 in size, the mice were randomized into six groups (six mice each): (1) oral vehicle control; (2) oral 30 mg/kg ginsenoside M1; (3) oral 60 mg/kg ginsenoside M1; (4) oral 90 mg/kg ginsenoside M1; (5) SC vehicle control; (6) SC 20 mg/kg ginsenoside M1. The mice were given a daily oral administration or SC injection of either vehicle or ginsenoside M1 for 5 successive days. The mice were scarified at 24 h after received the last dose of ginsenoside M1 or vehicle. The tumor volume (TV) was determined by measurement of the length (L) and width (W) of the tumor. The TV on day n (TVn) was calculated as TV (mm3)=(L×W^2)/2. The relative tumor volume on day n (RTVn) versus day 0 was expressed according to the following formula: RTVn=TVn/TV0. […] The data were expressed as mean±SD; n=6. ** and *** indicate a significant difference at the level of p<0.01 and p<0.001, respectively, compared to vehicle-control mice. (One-way ANOVA with Dunnett's multiple comparisons test).

CC(C)=CCC[C@](C)(O[C@@H]1OC(CO)[C@@H](O)[C@@H](O)C1O)[C@H]1CC[C@]2(C)C1[C@H](O)CC1[C@@]3(C)CC[C@H](O)C(C)(C)C3CC[C@]12C (stereo partly drawn) [ginsenoside M1, 20-O-β-D-glucopyranosyl-20(S)-protopanaxadiol]
tumor size compared to vehicle control group (SC injection 20 mg/kg daily): significantly reduced | tumor weight compared to vehicle control group (SC injection 20 mg/kg daily): significantly reduced | tumor size compared to vehicle control group (oral 30 mg/kg daily): did not significant reduce | tumor weight compared to vehicle control group (oral 30 mg/kg daily): did not significant reduce | tumor size compared to vehicle control group (oral 60 mg/kg daily): did not significant reduce | tumor weight compared to vehicle control group (oral 60 mg/kg daily): did not significant reduce | tumor size compared to vehicle control group (oral 90 mg/kg daily): significantly reduced
